In general, Kd refers to the equilibrium constant for the complex coming apart.

Experiment [1] concerns the target Serine/threonine-protein kinase Nek7 (Homo sapiens, UniProt Q8TDX7).
Experiment [2] has as its target T1, Cyclin-dependent kinase-like 5 (Homo sapiens, UniProt O76039).
T1 sequence (O76039 whole entry): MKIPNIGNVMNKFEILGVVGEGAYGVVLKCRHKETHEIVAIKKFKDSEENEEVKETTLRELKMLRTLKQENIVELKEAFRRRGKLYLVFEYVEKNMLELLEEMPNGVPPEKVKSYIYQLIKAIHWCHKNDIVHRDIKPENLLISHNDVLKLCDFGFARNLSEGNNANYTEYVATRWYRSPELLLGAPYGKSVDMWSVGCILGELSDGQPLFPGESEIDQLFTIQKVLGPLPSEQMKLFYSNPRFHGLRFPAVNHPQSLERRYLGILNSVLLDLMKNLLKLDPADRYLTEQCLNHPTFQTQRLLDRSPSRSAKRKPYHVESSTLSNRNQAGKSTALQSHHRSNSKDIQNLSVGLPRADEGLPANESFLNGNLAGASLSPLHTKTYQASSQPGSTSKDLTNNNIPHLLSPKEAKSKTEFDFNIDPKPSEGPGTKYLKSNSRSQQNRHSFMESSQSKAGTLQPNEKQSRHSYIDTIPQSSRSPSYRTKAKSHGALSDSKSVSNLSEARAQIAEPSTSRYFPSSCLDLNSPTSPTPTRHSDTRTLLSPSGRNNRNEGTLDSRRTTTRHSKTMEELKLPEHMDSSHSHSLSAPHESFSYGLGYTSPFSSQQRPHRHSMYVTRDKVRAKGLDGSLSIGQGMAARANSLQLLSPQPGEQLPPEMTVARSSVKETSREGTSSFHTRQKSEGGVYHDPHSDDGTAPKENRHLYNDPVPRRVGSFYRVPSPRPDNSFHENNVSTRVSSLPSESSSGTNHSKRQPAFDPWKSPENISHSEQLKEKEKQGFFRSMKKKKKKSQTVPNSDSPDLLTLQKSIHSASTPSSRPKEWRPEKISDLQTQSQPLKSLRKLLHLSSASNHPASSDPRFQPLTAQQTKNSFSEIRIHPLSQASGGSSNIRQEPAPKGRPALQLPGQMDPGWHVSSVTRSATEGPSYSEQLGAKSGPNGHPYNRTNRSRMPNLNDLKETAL

Experiment [3] deals with Midasin (Homo sapiens, UniProt Q9NU22).
For experiment [4], the target named is Dual specificity protein kinase CLK1 (Homo sapiens, UniProt P49759).
Chain of Dual specificity protein kinase CLK1 (P49759 whole entry): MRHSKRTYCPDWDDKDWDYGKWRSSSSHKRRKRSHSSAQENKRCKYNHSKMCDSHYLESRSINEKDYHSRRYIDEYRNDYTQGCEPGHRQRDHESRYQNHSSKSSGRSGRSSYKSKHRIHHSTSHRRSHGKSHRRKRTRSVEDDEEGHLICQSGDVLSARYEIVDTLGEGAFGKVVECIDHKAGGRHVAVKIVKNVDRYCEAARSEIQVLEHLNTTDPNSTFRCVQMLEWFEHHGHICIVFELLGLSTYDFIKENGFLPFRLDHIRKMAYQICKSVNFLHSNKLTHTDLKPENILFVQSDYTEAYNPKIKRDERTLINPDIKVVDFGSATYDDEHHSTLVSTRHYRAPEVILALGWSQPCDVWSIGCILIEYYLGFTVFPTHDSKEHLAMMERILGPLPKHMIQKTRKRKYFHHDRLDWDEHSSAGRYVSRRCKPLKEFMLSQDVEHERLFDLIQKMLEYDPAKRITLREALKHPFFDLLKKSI
In experiment [5] the target is T2, Protein kinase C zeta type (Homo sapiens, UniProt Q05513).
T2 sequence (Q05513 whole entry): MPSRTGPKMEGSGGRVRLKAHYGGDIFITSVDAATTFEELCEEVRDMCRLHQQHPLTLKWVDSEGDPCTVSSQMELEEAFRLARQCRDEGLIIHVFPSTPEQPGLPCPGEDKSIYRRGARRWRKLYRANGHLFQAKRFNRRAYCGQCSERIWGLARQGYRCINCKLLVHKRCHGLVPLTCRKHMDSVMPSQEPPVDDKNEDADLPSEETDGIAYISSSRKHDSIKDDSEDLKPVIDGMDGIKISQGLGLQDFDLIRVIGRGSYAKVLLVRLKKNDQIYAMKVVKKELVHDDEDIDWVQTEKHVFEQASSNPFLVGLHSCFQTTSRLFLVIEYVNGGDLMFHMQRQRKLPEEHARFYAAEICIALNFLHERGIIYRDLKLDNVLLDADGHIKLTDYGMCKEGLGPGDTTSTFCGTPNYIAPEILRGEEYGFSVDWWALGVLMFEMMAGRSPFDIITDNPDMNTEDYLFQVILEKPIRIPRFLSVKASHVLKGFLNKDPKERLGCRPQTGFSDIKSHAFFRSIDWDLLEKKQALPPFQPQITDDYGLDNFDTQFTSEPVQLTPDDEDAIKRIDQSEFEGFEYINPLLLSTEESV

The target of experiment [6] is Dual specificity protein kinase CLK2 (Homo sapiens, UniProt P49760).
Chain of Dual specificity protein kinase CLK2 (P49760 whole entry): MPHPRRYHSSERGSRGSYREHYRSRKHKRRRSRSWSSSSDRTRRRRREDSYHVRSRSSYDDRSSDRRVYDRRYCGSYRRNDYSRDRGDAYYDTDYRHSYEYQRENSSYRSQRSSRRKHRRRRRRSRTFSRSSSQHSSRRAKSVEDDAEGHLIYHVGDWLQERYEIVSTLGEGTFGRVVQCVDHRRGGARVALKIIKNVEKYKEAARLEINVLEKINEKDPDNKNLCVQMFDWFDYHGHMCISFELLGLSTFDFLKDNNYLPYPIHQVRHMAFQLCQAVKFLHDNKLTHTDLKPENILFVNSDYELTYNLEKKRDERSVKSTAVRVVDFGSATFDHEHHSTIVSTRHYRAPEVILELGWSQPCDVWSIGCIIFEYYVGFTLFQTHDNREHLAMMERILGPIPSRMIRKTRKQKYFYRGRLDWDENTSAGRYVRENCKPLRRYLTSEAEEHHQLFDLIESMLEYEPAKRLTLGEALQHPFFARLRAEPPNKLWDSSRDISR
In experiment [7] the target is Cyclin-dependent kinase 17 (Homo sapiens, UniProt Q00537).
Chain of Cyclin-dependent kinase 17 (Q00537 whole entry): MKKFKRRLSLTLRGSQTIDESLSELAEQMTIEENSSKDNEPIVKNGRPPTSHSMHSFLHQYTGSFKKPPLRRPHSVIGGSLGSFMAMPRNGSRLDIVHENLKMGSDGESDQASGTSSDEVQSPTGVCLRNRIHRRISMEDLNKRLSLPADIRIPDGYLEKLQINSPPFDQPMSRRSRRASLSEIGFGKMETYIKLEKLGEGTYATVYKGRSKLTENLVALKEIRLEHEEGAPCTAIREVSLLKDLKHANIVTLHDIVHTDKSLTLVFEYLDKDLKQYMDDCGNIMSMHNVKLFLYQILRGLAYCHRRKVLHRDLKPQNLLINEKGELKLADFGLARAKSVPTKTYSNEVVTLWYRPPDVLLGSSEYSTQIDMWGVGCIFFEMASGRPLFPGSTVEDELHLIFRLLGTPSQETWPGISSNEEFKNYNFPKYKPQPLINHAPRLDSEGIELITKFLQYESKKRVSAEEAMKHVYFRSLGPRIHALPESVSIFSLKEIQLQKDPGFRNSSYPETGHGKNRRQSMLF
Experiment [8] has as its target Proto-oncogene tyrosine-protein kinase Src (Homo sapiens, UniProt P12931).
In experiment [9] the target is T3, Aurora kinase A (Homo sapiens, UniProt O14965).
T3 sequence (O14965 whole entry): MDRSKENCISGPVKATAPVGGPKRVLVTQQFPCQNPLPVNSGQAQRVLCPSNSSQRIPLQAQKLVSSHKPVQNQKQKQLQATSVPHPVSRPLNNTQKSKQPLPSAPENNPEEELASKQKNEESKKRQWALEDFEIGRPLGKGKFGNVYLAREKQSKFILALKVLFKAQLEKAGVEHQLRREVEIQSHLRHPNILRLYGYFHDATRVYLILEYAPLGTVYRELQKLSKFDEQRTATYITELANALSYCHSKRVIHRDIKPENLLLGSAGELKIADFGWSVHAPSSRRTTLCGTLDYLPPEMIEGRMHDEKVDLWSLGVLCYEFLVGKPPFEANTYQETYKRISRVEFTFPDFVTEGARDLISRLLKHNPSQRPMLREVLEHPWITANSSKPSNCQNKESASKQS

Experiment [10] concerns the target Proto-oncogene tyrosine-protein kinase receptor Ret (Homo sapiens, UniProt P07949).
For experiment [11], the target named is PAS domain-containing serine/threonine-protein kinase (Homo sapiens, UniProt Q96RG2).
Experiment [12] has as its target cAMP-dependent protein kinase catalytic subunit beta (Homo sapiens, UniProt P22694).
Experiment [13] concerns the target Serine/threonine-protein kinase MRCK gamma (Homo sapiens, UniProt Q6DT37).
Experiment [14] deals with Serine/threonine-protein kinase PAK 6 (Homo sapiens, UniProt Q9NQU5).
Experiment [15] addresses Dual specificity testis-specific protein kinase 2 (Homo sapiens, UniProt Q96S53).
The target in experiment [16] is T4, Adenine phosphoribosyltransferase (Homo sapiens, UniProt P07741).
T4 sequence (P07741 whole entry): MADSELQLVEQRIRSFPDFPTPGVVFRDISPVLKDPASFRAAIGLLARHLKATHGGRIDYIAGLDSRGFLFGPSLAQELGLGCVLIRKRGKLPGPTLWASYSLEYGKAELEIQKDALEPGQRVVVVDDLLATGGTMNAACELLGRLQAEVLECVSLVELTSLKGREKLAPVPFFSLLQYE

Experiment [17] deals with Uncharacterized aarF domain-containing protein kinase 5 (Homo sapiens, UniProt Q3MIX3).
Chain of Uncharacterized aarF domain-containing protein kinase 5 (Q3MIX3 whole entry, the tested form may be a part): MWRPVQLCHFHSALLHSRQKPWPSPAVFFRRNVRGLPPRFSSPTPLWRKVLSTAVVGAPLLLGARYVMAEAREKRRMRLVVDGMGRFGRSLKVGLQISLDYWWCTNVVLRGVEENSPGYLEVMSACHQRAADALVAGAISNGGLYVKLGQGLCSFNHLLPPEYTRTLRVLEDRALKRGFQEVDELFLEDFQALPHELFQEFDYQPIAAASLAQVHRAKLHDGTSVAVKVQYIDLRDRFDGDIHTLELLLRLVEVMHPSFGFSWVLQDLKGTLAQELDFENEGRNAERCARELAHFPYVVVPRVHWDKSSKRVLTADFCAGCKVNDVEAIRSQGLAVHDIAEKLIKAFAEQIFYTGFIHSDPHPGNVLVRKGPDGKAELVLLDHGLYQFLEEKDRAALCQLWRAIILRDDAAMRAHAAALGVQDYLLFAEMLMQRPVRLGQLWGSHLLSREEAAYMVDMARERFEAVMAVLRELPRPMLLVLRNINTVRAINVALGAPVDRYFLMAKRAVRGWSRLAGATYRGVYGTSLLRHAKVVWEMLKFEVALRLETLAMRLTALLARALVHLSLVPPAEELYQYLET

Molecules are shown by their SMILES. Activity calls are given as the source filed them.
Also: in the data inactive means no Kd found up to 30 µM.

Chain of Serine/threonine-protein kinase MRCK gamma (Q6DT37 whole entry): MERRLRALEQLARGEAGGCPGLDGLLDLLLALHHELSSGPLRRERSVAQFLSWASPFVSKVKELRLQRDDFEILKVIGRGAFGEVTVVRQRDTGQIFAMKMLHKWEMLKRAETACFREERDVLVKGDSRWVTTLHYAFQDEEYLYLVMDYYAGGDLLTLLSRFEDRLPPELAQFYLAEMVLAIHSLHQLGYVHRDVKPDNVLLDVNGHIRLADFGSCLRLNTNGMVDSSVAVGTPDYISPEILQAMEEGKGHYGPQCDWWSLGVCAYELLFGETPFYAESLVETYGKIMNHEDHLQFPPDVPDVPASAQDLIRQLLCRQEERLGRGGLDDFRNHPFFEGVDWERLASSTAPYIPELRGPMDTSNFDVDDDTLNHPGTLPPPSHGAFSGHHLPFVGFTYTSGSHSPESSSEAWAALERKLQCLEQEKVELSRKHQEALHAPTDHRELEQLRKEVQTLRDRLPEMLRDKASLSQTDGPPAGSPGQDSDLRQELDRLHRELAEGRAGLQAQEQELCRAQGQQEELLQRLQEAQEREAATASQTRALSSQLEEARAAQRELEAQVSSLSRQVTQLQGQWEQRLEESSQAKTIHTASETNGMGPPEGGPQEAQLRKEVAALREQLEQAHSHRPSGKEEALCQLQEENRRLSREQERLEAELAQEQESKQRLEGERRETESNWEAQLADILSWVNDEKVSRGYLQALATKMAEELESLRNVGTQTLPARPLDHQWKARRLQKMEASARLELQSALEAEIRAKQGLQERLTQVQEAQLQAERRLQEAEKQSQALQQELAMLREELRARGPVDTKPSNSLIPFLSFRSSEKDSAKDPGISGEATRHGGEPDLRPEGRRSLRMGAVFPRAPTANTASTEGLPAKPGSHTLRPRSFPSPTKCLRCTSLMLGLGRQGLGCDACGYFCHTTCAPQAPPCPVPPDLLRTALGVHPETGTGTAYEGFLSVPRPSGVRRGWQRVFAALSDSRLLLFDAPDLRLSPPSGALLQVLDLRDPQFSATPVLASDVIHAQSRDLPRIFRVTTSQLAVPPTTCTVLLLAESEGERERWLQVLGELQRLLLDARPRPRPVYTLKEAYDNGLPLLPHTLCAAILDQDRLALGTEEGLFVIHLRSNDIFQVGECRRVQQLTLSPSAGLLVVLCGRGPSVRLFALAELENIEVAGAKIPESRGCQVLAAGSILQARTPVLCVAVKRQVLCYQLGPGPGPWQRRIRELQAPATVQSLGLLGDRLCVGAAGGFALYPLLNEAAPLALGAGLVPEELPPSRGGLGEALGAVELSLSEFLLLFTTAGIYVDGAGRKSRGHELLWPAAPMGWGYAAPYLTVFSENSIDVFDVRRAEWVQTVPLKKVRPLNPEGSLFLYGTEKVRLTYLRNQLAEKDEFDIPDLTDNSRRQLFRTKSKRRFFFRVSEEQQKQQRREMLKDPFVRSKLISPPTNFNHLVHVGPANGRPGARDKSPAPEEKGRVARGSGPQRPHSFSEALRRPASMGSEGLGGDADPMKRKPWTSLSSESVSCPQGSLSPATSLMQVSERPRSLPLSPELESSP
Chain of Dual specificity testis-specific protein kinase 2 (Q96S53 whole entry): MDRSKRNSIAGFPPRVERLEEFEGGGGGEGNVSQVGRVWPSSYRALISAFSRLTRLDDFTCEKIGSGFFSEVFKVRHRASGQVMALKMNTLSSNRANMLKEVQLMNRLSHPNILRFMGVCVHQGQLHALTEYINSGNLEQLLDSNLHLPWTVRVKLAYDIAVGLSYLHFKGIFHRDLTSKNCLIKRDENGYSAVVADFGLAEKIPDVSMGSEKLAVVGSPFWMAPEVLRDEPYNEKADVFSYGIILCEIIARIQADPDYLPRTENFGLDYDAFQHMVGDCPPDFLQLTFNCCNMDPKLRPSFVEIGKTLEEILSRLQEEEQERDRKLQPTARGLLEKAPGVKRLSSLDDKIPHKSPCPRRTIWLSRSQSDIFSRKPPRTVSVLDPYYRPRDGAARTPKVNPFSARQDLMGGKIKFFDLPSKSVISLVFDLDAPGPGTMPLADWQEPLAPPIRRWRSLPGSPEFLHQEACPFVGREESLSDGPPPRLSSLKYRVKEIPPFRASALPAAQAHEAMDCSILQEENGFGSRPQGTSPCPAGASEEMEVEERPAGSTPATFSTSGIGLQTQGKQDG
Chain of Serine/threonine-protein kinase Nek7 (Q8TDX7 whole entry): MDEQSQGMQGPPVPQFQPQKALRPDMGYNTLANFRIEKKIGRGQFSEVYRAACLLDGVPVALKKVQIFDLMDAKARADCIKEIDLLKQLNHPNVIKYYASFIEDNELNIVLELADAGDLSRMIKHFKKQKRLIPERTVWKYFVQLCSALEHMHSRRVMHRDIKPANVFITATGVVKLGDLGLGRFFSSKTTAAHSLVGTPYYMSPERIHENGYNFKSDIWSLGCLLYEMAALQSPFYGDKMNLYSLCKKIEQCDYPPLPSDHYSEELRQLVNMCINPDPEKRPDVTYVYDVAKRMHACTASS
Chain of Proto-oncogene tyrosine-protein kinase Src (P12931 2-536 limits assumed): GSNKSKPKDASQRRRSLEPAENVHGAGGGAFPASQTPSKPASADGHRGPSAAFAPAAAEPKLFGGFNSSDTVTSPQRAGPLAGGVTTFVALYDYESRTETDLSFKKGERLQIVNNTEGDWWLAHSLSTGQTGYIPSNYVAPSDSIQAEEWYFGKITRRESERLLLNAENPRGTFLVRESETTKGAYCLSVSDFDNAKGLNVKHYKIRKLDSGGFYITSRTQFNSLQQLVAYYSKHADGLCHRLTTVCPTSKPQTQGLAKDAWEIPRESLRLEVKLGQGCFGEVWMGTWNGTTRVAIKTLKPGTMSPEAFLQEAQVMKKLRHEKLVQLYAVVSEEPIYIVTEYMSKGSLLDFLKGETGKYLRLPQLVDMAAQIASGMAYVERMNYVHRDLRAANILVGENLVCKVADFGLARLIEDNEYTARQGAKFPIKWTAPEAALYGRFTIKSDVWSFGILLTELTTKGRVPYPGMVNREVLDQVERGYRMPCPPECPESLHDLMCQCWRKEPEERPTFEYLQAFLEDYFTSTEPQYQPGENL

Consider `Cc1ccc(S(=O)(=O)Nc2nc3ccccc3nc2Nc2ccc3nsnc3c2)cc1`, for which the Kd in [1], in experiment [2], in [3], in [4], in [5] and in [6] was > 30 µM (inactive) each time. Further, the Kd in experiment [7], in experiment [8], in experiment [9], in experiment [10], in experiment [11] and in experiment [12] was > 30 µM (inactive) throughout.
For the compound `COc1ccc(-c2ccc3c(N4CCOC[C@@H]4C)nc(N4CCOC[C@@H]4C)nc3n2)cc1CO` [AZD-8055], the Kd in experiment [1], in [3], in [4], in experiment [5], in [6] and in experiment [13] was > 30 µM (inactive) in each case. Moreover, the Kd in experiment [7], in experiment [8], in experiment [9], in experiment [14], in experiment [10] and in experiment [11] was > 30 µM (inactive) throughout. The Kd in [15], in experiment [16] and in [12] was > 30 µM (inactive) each time.
`C[C@@H]1CN(Cc2ccc(F)cc2)[C@@H](C)CN1C(=O)c1cc2c(C(=O)C(=O)N(C)C)cn(C)c2cc1Cl` [TALMAPIMOD]: the Kd in experiment [2], in experiment [3], in experiment [4], in experiment [5], in [6] and in experiment [13] was > 30 µM (inactive) each time. Besides, the Kd in [7], in experiment [8], in [9], in experiment [14], in [10] and in experiment [17] was > 30 µM (inactive) each time. Further, the Kd in experiment [11], in experiment [15], in experiment [16] and in experiment [12] was > 30 µM (inactive) in each case.
For `CN1CCC(COc2cnc(-c3cccc(Cn4nc(-c5cccc(C#N)c5)ccc4=O)c3)nc2)CC1` [TEPOTINIB], the Kd in experiment [1], in experiment [3], in [4], in experiment [5], in [13] and in experiment [7] was > 30 µM (inactive) in each case. The Kd in experiment [8], in [9], in experiment [14], in experiment [10], in experiment [17] and in [11] was > 30 µM (inactive) each time. Further, the Kd in experiment [15], in experiment [16] and in experiment [12] was > 30 µM (inactive) each time.
Take `Cc1ccc(NC(=O)c2ccc(CN3CC[C@H](N(C)C)C3)c(C(F)(F)F)c2)cc1Nc1nccc(-c2cncnc2)n1` [BAFETINIB]: the Kd in experiment [1], in experiment [2], in experiment [3], in experiment [4], in experiment [5] and in [6] was > 30 µM (inactive) each time. Moreover, the Kd in [13] is > 30 µM (inactive); in experiment [7] it was > 30 µM (inactive); in experiment [8], > 30 µM (inactive); in experiment [9], > 30 µM (inactive); in experiment [10] it was 2.42 µM (active); in [17], > 30 µM (inactive). In addition, the Kd in [11], in [15], in experiment [16] and in experiment [12] was > 30 µM (inactive) in each case.
